Values of other authors as cited in PMC12163019 (Frontiers in Pharmacology, 2025).

Design: method as in Danto et al., 2019a
Details: modified-release formulation; ref Danto et al., 2019a

## CC[C@@H]1[C@H](F)C(=O)N[C@@H]1COc1nccc2cc(C(N)=O)c(OC)cc12 [zimlovisertib]
  half-life: 38.8 ± 21.1 h
